For data set [1], the target named is T1, reuptake of 5-HT by brain synaptosomes (prefrontal cortex) (Rattus norvegicus, UniProt P31652).
T1 construct: from tissue; host or cells: rat prefrontal cortex synaptosomes
Briefly: Inhibition of [3H]5-HT reuptake by rat brain synaptosomes, single concentration (Example 35). Particulars: test substance 10 μmol/L; inhibitory rate of 0.1 mM venlafaxine taken as 100%. Format: biochemical. On the procedure: (§1) Studies on the reuptake of monoamine neurotransmitters by brain synaptosomes was performed, which is a currently important mean adopted in the worldwide in pharmacological studies of central nervous. This method can not only be used to study the action mechanism of a drug, but also be used for screening new drugs acting by this mechanism.
(§2) Male SD rats were sacrificed by cervical dislocation and then the brains thereof were taken out rapidly by decollation and placed on ice. Related rain tissues (for [^3H]5-HT and [^3H]NA reuptake experiment, prefrontal cortex was taken; for [^3H]DA reuptake experiment, striatum was taken) were separated and weighed. 10 times (V/W) of 0.32 mol/L ice-cold sucrose solution was added and was homogenized electrically with glass-teflon. The homogenate was centrifugated at 4° C. at 1000 g×10 min. Then the supernatant was taken and centrifugated at 4° C. at 17000 g×20 min. The precipitation was suspended in 30 volume of KRH Buffer (125 mM NaCl, 4.8 mM KCl, 1.2 mM CaCl2, 1.2 mM MgSO4, 1.0 mM KH2PO4, 22 mM NaHCO3, 25 mM HEPES, 10 mM Glucose, 10 μM Pargyline, 0.2 mg/ml Ascorbic Acid) and then was preserved in an ice bath for use. (for NA reuptake experiment, the cortex needed was suspended in 20 volume of KRH Buffer)
(§3) Stock solution of the test substance was thawed immediately before use and diluted with KBH Buffer to 100 μmol/L, 50 μl thereof was added in 500 μl of total reaction system, and the final concentration was 10 μmol/L. Then 50 μl suspended synaptic prepared above was added and mixed evenly, incubated in water bath for 30 min at 37° C. Then […] [^3H] 5-HT (50 nmol/L [^3H]DA or […] [^3H]NA) was added. After incubated at 37° C. for 10 min, the reaction system was immediately taken out and the reaction was stopped by adding 2 ml of ice-cold 150 mmol/L Tris-HCl buffer solution. The samples were collected on the circular fiberglass membrane by vacuum filtration, and the membrane was washed 3 times with 3 ml of ice-cold Tris-HCl buffer solution. The filtration membrane was removed, baked for 15 min in a far-infrared oven and placed into an EP tube. 1.5 ml scintillation fluid was added overnight and was tested by liquid scintillation counter. For the solvent control total binding tube and the non-specific binding tube, no test substance was added; for the total binding tube, 50 μl solvent was added.

Data set [2] concerns the target T2, reuptake of NA by brain synaptosomes (prefrontal cortex) (Rattus norvegicus, UniProt Q9WTR4).
T2 construct: from tissue; host or cells: rat prefrontal cortex synaptosomes
The experiment in a line: Inhibition of [3H]NA reuptake by rat brain synaptosomes, single concentration (Example 35). The format is biochemical. Particulars: test substance 10 μmol/L; inhibitory rate of 0.1 mM venlafaxine taken as 100%. On the procedure: as §1, §2, §3

For data set [3], the target named is T3, reuptake of DA by brain synaptosomes (striatum) (Rattus norvegicus, UniProt P23977).
T3 construct: from tissue; host or cells: rat striatum synaptosomes
The experiment in a line: Inhibition of [3H]DA reuptake by rat brain synaptosomes, single concentration (Example 35). The format is biochemical. Particulars: test substance 10 μmol/L; inhibitory rate of 0.1 mM 6-hydroxy DA taken as 100%. On the procedure:
as §1, §2, §3

The target in data set [4] is T4, reuptake of [3H]5-HT by prefrontal cortex synaptosomes (Rattus norvegicus, UniProt P31652).
T4 construct: from tissue; host or cells: rat prefrontal cortex synaptosomes
Briefly: IC50 for inhibiting reuptake of [3H]5-HT by brain synaptosomes (Example 36). The format is biochemical. Particulars: mean, n = 3~4. The protocol:
as §2, with “The precipitation was suspended in 30 volume of KRH Buffer (125 mM NaCl, 4.8 mM KCl, 1.2 mM CaCl2, 1.2 mM MgSO4, 1.0 mM KH2PO4, 22 mM NaHCO3, 25 mM HEPES, 10 mM Glucose, 10 μM Pargyline, 0.2 mg/ml Ascorbic Acid) and then was preserved in an ice bath for use.” left out
(§4) The compounds were used for the studies on inhibition effect (IC50) on reuptake of [^3H]5-HT/NA/DA. At least 5 concentrations each time were settled for each test compound. Each concentration was determined by the average of double twin tubes and the test was repeated for more than 3 times. A series of concentrations of the compounds were prepared by gradient dilution before use. 50 μl thereof was added in total reaction system. Then 50 μl suspended synaptic membrane was added and mixed evenly, incubated in water bath at 37° C. for 30 min. Then 10 nmol/L [^3H] 5-HT (or 50 nmol/L [^3H]DA or 40 nmol/L [^3H]NA) was added and incubated in water bath at 37° C. for 10 min (for [^3H]NA, incubated for 5 min). For the [^3H]5-HT reuptake experiment, 50 μL of fluoxetine (100 μmol/L) was added to the non-specific binding tube; for the [^3H]DA reuptake experiment, 50 μL of cocaine (600 μmol/L) was added to the non-specific binding tube; for the [^3H]NA reuptake experiment, 50 μL of desipramine (100 μmol/L) was added to the non-specific binding tube; for the solvent control, solvent was added to the total binding tube, but no test compound added.
(§5) Sigmoidal curve fitting was performed for the data obtained from all of the test drugs by Origin 6.1, and the IC50 value was calculated.

The target of data set [5] is T5, reuptake of [3H]NA by prefrontal cortex synaptosomes (Rattus norvegicus, UniProt Q9WTR4).
T5 construct: from tissue; host or cells: rat prefrontal cortex synaptosomes
The experiment in a line: IC50 for inhibiting reuptake of [3H]NA by brain synaptosomes (Example 36). Format: biochemical. Particulars: mean, n = 3~4. On the procedure: as §2
(§6) 1. Preparation of Rat Brain Synaptosomes (the Same as Example 35)
as §4, §5

The target in data set [6] is T6, reuptake of [3H]DA by striatum synaptosomes (Rattus norvegicus, UniProt P23977).
T6 construct: from tissue; host or cells: rat striatum synaptosomes
Briefly: IC50 for inhibiting reuptake of [3H]DA by brain synaptosomes (Example 36). The format is biochemical. Particulars: mean, n = 3~4. The protocol:
as §2, §6, §4, §5

Another data set has as its system ICR mice. Briefly: Mice Forced Swimming Test (in vivo antidepression activity). Particulars: for swimming test: immobility time: n = 12, mean±SD.
The nature of data set [7]: Pharmacokinetics and bioavailability, single i.v. and oral administration in SD rat. Particulars: male, plasma; for Cmax: read-out: Cmax; for AUC (0-t): read-out: AUC (0-t); for half-life: read-out: half life (T½) (converted). The format is in vivo. On the procedure:
To study the pharmacokinetics parameters and the bioavailability of VIII-9, VIII-10 and SIPI5286 when single i.v. and oral administration in SD rat
Eighteen male rats were randomized into 6 groups and were administrated with the three compounds via i.v. and oral route, respectively. The dosage was 10 mg/kg (IV) and 50 mg/kg (PO). The test substance was dissolved in the solution of 5% DMSO/95% HP-β-CD aqueous solution (30%), and were administrated to the animal via i.v. and oral route. Blood plasma was collected at a serial of time points after i.v. and oral administration, and the blood drug concentrations were determined by LC/MS/MS. Then the pharmacokinetics parameters and the bioavailability were calculated based on the blood drug concentrations.

Read-outs that look alike come from different tables or passages of the source.

T1 sequence (P31652 whole entry): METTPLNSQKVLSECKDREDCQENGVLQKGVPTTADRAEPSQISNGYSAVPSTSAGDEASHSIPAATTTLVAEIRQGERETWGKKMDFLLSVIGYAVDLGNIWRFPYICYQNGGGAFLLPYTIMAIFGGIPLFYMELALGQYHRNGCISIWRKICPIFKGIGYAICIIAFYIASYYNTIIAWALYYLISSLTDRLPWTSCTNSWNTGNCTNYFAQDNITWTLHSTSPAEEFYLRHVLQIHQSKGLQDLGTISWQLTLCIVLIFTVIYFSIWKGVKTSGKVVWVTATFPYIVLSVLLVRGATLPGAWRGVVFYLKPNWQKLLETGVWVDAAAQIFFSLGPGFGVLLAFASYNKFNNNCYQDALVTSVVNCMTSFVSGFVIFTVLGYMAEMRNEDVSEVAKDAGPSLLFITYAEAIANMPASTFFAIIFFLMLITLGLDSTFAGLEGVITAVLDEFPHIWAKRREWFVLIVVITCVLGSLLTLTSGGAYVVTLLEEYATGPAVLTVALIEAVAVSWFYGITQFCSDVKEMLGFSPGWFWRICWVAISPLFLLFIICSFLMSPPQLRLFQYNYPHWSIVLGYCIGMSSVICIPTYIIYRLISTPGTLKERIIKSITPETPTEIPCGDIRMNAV
T3 sequence (P23977 whole entry): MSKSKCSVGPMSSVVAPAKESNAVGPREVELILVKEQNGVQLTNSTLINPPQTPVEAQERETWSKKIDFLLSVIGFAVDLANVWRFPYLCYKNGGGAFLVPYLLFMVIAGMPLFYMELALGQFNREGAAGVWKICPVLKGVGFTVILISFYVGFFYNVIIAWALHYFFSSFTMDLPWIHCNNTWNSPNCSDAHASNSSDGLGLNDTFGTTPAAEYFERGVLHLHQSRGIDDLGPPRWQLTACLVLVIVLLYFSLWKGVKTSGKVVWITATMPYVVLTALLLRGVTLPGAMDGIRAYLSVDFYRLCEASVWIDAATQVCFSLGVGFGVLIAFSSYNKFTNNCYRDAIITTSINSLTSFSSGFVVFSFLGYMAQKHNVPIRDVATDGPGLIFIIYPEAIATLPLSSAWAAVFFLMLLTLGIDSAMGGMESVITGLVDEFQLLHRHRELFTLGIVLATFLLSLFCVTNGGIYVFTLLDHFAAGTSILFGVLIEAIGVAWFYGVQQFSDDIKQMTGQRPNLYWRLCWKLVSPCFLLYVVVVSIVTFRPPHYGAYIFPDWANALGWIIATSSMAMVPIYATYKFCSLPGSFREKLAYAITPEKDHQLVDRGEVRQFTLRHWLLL
T2 sequence (Q9WTR4 1-597): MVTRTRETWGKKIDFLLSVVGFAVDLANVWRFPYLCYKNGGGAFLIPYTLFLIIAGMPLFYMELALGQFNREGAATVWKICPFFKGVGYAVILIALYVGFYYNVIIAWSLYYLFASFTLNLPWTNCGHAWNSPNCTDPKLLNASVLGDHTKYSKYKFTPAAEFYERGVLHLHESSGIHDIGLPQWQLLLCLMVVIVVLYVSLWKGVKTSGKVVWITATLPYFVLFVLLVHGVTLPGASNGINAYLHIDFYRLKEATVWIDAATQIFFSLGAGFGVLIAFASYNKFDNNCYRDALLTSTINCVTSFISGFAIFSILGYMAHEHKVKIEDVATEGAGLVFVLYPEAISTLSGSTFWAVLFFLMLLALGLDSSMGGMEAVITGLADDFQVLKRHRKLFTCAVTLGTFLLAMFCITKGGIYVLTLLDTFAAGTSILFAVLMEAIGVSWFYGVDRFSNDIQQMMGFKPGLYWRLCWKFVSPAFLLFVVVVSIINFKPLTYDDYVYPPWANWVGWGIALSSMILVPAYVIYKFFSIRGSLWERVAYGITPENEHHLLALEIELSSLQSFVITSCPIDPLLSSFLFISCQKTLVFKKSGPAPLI
T4 sequence (P31652 whole entry): as the sequence (P31652 whole entry) above
T6 sequence (P23977 whole entry): as the sequence (P23977 whole entry) above
T5 sequence (Q9WTR4 1-597): as the sequence (Q9WTR4 1-597) above

Consider `CCCC[C@@H]([C@H](O)c1ccc2c(Cl)c(OC)ccc2c1)N1CCN(c2ccccc2OC)CC1` (racemic) [VIII-3, (1SR,2RS)-N^1-o-methoxylphenyl-N^4-[1-butyl-2-(5′-chloro-6′-methoxyl-2′-naphthyl)hydroxyethyl]piperazine], for which the “Inhibition on the reuptake of 5-HT(%)” value in data set [1] is 65.1%. Further, in data set [2], the “inhibition on the reuptake of NA(%)” value is reported as 144%. Also, in data set [3], the “inhibition on the reuptake of DA(%)” value worked out at 96%.
The like results for `CCCC[C@@H]([C@@H](O)c1ccc2c(Cl)c(OC)ccc2c1)N1CCN(c2ccccc2OC)CC1` (racemic) [VIII-4, (1SR,2SR)-N^1-o-methoxylphenyl-N^4-[1-butyl-2-(5′-chloro-6′-methoxyl-2′-naphthyl)hydroxyethyl]piperazine] were, in that order, 23%, 146.5% and 68%.
With `CCCC[C@H]([C@@H](O)c1ccc2c(Cl)c(OC)ccc2c1)N1CCN(C(c2ccccc2)c2ccccc2)CC1` (racemic) [VIII-19, (1SR,2RS)-N^1-benzhydryl-N^4-[1-butyl-2-(5′-chloro-6′-methoxyl-2′-naphthyl)hydroxyethyl]piperazine], the “Inhibition on the reuptake of 5-HT(%)” value in data set [1] was found to be 73.4%. Further, the “inhibition on the reuptake of NA(%)” value in data set [2] is on record as 103.6%. Further, in data set [3], the “inhibition on the reuptake of DA(%)” value came out at 95%.
The like results for `CCCC[C@H]([C@H](O)c1ccc2c(Cl)c(OC)ccc2c1)N1CCN(C(c2ccccc2)c2ccccc2)CC1` (racemic) [VIII-20, (1SR,2SR)-N^1-benzhydryl-N^4-[1-butyl-2-(5′-chloro-6′-methoxyl-2′-naphthyl)hydroxyethyl]piperazine] were, in that order, 0%, 78% and 57%.
As to `CCCC[C@H]([C@@H](O)c1ccc2c(Cl)c(OC)ccc2c1)N1CCN(CC=Cc2ccccc2)CC1` (racemic) [VIII-21, (1SR,2RS)-N^1-cinnamyl-N^4-[1-butyl-2-(5′-chloro-6′-methoxyl-2′-naphthyl)hydroxyethyl]piperazine], the “Inhibition on the reuptake of 5-HT(%)” value in data set [1] came to 81%. Further, in data set [2], the “inhibition on the reuptake of NA(%)” value turned out to be 87.5%. In addition, in data set [3], the “inhibition on the reuptake of DA(%)” value worked out at 90%.
As for `CCCC[C@@H]([C@@H](O)c1ccc2c(Cl)c(OC)ccc2c1)N1CCN(CC=Cc2ccccc2)CC1` (racemic) [VIII-22, (1SR,2SR)-N^1-cinnamyl-N^4-[1-butyl-2-(5′-chloro-6′-methoxyl-2′-naphthyl)hydroxyethyl]piperazine], the “Inhibition on the reuptake of 5-HT(%)” value in data set [1] is 82.3%. Also, in data set [2], the “inhibition on the reuptake of NA(%)” value is 78.9%. In data set [3], the “inhibition on the reuptake of DA(%)” value is 94%.
`NCCc1cc(O)c(O)cc1O` [6-hydroxy DA, reference compound]: the “inhibition on the reuptake of DA(%)” value in data set [3] came out at 100%.
The term IC50 denotes the concentration that inhibits the measured activity by half. Read a high IC50 as a need for much substance. As a reminder, the ED50 is the dose at which the effect has come halfway, by size or by number of responders. One may read the Cmax as the maximum level reached in the sampled fluid or tissue. What is called half-life is the time in which the quantity being followed falls by half. The term bioavailability denotes the share of a dose that reaches the circulation, judged against a reference dose that is usually intravenous. As usually defined, the Tmax is the time from dosing to the highest level. As to `COc1ccc2cc([C@@H](O)[C@H](C)N3CCN(Cc4ccccc4)CC3)ccc2c1Cl` [SIPI5286, reference compound], the figures for the half-inhibitory concentration (IC50) in data set [4], in data set [5] and in data set [6] were 12 nM, 185 nM and 1150 nM, respectively. In the data set with ICR mice (Mus musculus, single oral administration), this compound came in with an ED50 of 28.9 mg/kg. Further, the “swimming test: immobility time” value in the data set with ICR mice (one week oral administration, 10.4 mg/kg) came out at 123.8 ± 21.68 s; in the data set on ICR mice (one week oral administration, 17.3 mg/kg), 102.9 ± 37.94 s; in the data set on ICR mice (one week oral administration, 28.8 mg/kg), 97.2 ± 28.33 s; in the data set with ICR mice (one week oral administration, 48 mg/kg) it was 95.5 ± 27.0 s; in the data set on ICR mice (single oral administration, 10.4 mg/kg) it was 107.9 ± 37.19 s; in the data set on ICR mice (single oral administration, 17.3 mg/kg), 105.4 ± 33.11 s. For the same compound, the “swimming test: immobility time” value with ICR mice (single oral administration, 28.8 mg/kg) came to 92.1 ± 23.11 s; in the data set on ICR mice (single oral administration, 48 mg/kg), 90.1 ± 26.02 s. The highest concentration (Cmax) in data set [7] (iv, i.v. 10 mg/kg, (5 min)) was determined as 13900 ng/mL; in data set [7] (oral 50 mg/kg) it was 6860 ng/mL. The AUC (0-t) was determined as 12600 ng·h/mL in data set [7] (iv, i.v. 10 mg/kg) and 30300 ng·h/mL in data set [7] (oral 50 mg/kg). For the same compound, the half-life in data set [7] (iv, i.v. 10 mg/kg) was 3.41 h; in data set [7] (oral 50 mg/kg), 5.71 h. Also, the bioavailability in data set [7] (oral 50 mg/kg vs i.v. 10 mg/kg, read-out: bioavailability) was determined as 51.6%. The Tmax in data set [7] (oral 50 mg/kg, read-out: Tmax) was determined as 0.5 h.
For `COc1ccc2cc(C(O)C(C)N3CCN(Cc4ccccc4)CC3)ccc2c1Cl` (centres unmarked) [SIPIyy24, N^1-benzyl-N^4-[1-methyl-2-(5′-chloro-6′-methoxyl-2′-naphthyl) hydroxyethyl]piperazine, reference compound], the figures for the IC50 in data set [4] and in data set [5] were 200 nM and 1000 nM, respectively. Further, the “IC50 [^3H]DA reuptake” value in data set [6] is on record as “No activity detected”.
For the compound `COc1ccc(C(CN(C)C)C2(O)CCCCC2)cc1` (centres unmarked) [venlafaxine, reference compound], the “inhibition on the reuptake of NA(%)” value in data set [2] is recorded as 100%. Also, the “swimming test: immobility time” value in the data set on ICR mice (one week oral administration, 50 mg/kg) is 83.5 ± 29.0 s.

The values above are taken from patent publication US8252796B2, “1-butyl-2-hydroxyaralkyl piperazine derivatives and the uses as anti-depression medicine thereof” (CSPC Zhonggi Pharmaceutical Technology (Shijiazhuang) Co. …, priority 2008, dated 2012).
